Measured values taken from patent US10450258B2, “Substituted aromatic compounds for the treatment of pulmonary fibrosis, liver fibrosis, skin fibrosis and cardiac fibrosis” (PROMETIC PHARMA SMT LIMITED, priority 2013, dated 2019).
“Also recorded” adds a separate entry of the source.

Tests used:
[1] = system: heart fibrosis in 5/6 nephrectomized-catheterized rats; test: Heart fibrosis in 5/6 nephrectomized-catheterized (5/6-Nx) rats; type: in vivo, rat (male Sprague-Dawley); settings: for hydroxyproline (collagen) content in heart: FIG. 31
Excerpt: Implantation of a femoral catheter increases the presence of heart fibrosis in our 5/6 nephrectomized (5/6-Nx) model and it was used to assess the effect of Compound I on heart fibrosis. In summary, male 6-week old Sprague-Dawley rats were subjected to 5/6-Nx or sham operations. Briefly, two-thirds of the left kidney was removed on day 0 followed by the right total nephrectomy on day 7. A catheter was implanted via the femoral vein on day 7. Sham operated rats underwent exposition of the kidneys and removal of the perirenal fat and were used as controls. Animals that underwent the sham operation were treated with vehicle (water) and were used as controls. On day 21, rats were randomized based on their glomerular filtration rate (GFR) results. 5/6-Nx animals were treated with three times a week intravenous administration of Compound I (10 mg/kg), or with daily oral administration with Compound I (200 mg/kg). Heart fibrosis was determined by the measurement of hydroxyproline (collagen content) and by histological evaluation (HPE and Masson's trichrome staining). As mentioned, implantation of catheter for intravenous administration of compounds in catheterized 5/6 nephrectomized animals is inducing heart fibrosis compare to oral treatment (no catheter). Oral treatment is identified herein with the expression “po” that means “per os”; intravenous administration is identified with the expression “iv” for “intravenous”. As exemplified in FIG. 27, 5/6-Nx rats have weak heart lesions. However, implantation of a catheter induced a significant increase (4 times) of heart lesions (fibrosis, necrosis and inflammation).

[2] = system: normal human dermal fibroblasts (NHDF); test: Scratch assay (migration and invasion) of EGF-stimulated NHDF; type: cell-based; settings: mitomycin-treated NHDF, compound 0.5 mM, FIG. 26
Description: The next experiments (scratch assay, invasion/migration) were designed to determine the effect of Compound I on EGF-stimulated normal human dermal fibroblasts (NHDF). In summary, mitomycin-treated NHDF were stimulated with EGF and incubated in the presence or absence (control) of Compound I (0.5 mM). EGF stimulated fibroblast invasion into the scratch which is inhibited by Compound I (FIG. 26).

[3] = system: TGF-β, CTGF, IL-23p19, IL-6, collagen 1, fibronectin (FN-1), collagen 3 mRNA in lung tissue; test: Real-time PCR of inflammatory and fibrotic marker mRNA in lung tissue, bleomycin-induced pulmonary fibrosis mouse model; type: in vivo, mouse (male C57BL6)
Description: Male C57BL6 mice are administered intratracheal instillation of bleomycin sulphate (0.025 U) at day 0, randomized and administered Compound I (oral administration, 100 mg/kg and 200 mg/kg) on day 7 to day 20.
Further analysis of the lung tissue was undertaken. CTGF, collagen 1 and IL-23p19 mRNA expression was quantified by real-time PCR.
It was therefore evaluated side-by-side with Compound I in the bleomycin-induced pulmonary fibrosis mouse model by the same protocol described in Example 4 above. Compound I (200 mg/kg) and pirfenidone (400 mg/kg) were orally administered either alone or in combination.
In order to determine the effect of Compound I on pulmonary fibrosis, further analysis of the lung tissue was undertaken. TGF-β, CTGF, IL-23 and IL-6 mRNA expression was quantified by real-time PCR. […] Oral administration of pirfenidone had no effect on CTGF mRNA expression but decreased TGF-β, IL-23 and IL-6 mRNA expression. […]

[4] = system: collagen 1 mRNA in NHDF cells; test: Inhibition of collagen mRNA in TGF-β-activated NHDF fibroblasts; type: cell-based; settings: Homo sapiens, compound 0.5 mM
Description: CTGF, collagen 1 and α-SMA are fibrotic markers produced by activated fibroblasts and by epithelial cells that undergo to epithelial-mesenchymal transition (EMT).
Table 2: Percentage of inhibition of collagen in epithelial cells (HK2 cells) and fibroblasts (NHDF) and percentage of inhibition of α-SMA in fibroblasts (NRK-49F and NHDF) has been determined for several compounds according the invention. In all cases, the mRNA of collagen and α-SMA has been measured, and the inhibition was evaluated in presence of a respective concentration of the tested compound. The compounds have been tested at different concentrations [mM]. All compounds reduce the expression of collagen and α-SMA in HK-2, NHDF and NRK-49F cells.

[5] = system: normal human dermal fibroblasts (NHDF); test: TGF-β-induced and basal CTGF, collagen 1 and α-SMA transcript expression in NHDF (quantitative real-time PCR); type: cell-based
Description: The effect of Compound of the invention on skin fibrosis was studied using normal human dermal fibroblasts (NHDF).
In vitro analysis was undertaken to determine the effect of Compound I on TGF-β-induced CTGF, collagen 1 and α-SMA (markers of fibrosis) on normal human dermal fibroblasts (NHDF). Expression of the profibrotic (CTGF) and fibrotic markers (collagen 1 and α-SMA) were determined by quantitative real-time PCR.
Myofibroblasts are terminally differentiated cells derived from fibroblasts, epithelial and mesenchymal stem/stromal (fibrocytes) cells that play an important role in tissue fibrosis via increased matrix synthesis such as collagen. α-SMA is a well-known marker of myofibroblast.

With CCCCCc1cccc(CC(=O)[O-])c1.[Na+] [Compound I, Sodium Salt of 3-pentylphenylacetic acid] the “inflammation level in heart” value ([1]; intravenous 10 mg/kg three times a week, FIG. 29) was “significant reduction of inflammation”, the “necrosis level in heart” value ([1]; intravenous 10 mg/kg three times a week, FIG. 30) was “significant reduction of necrosis” and the “hydroxyproline (collagen) content in heart” value ([1]; intravenous 10 mg/kg three times a week) was “significant reduction”. For the same molecule, the “total heart lesions (histological evaluation)” value ([1]; intravenous 10 mg/kg three times a week, p<0.05, FIG. 28) was “reduces significantly”, the “heart fibrosis (blue-colored collagen deposition, Masson's trichrome photomicrographs)” value ([1]; intravenous, FIG. 34) was “reduces fibrosis” and the “hydroxyproline (collagen) content in heart” value ([1]; oral 200 mg/kg daily) was “significant reduction”. For the same molecule, the “heart fibrosis (blue-colored collagen deposition, Masson's trichrome photomicrographs)” value ([1]; oral, FIGS. 32 and 33) was “reduces fibrosis”, the “EGF-stimulated fibroblast migration and invasion into the scratch” value [2] was “reduction of the migration and invasion; also recorded: inhibited” and the “CTGF mRNA expression in lungs” value ([3]; oral 100 and 200 mg/kg, Example 21, FIG. 4) was “significantly decreased the expression”. The “IL-23p19 mRNA expression in lungs” value ([3]; oral 100 and 200 mg/kg, Example 21, FIG. 5) was “significantly decreased the expression”, the “collagen 1 mRNA expression in lungs” value ([3]; oral 100 and 200 mg/kg, Example 21, FIG. 6) was “significantly decreased the expression” and the “TGF-β mRNA expression in lungs” value ([3]; oral, Compound I 200 mg/kg, pirfenidone 400 mg/kg, alone or combined, FIG. 12) was “significantly decreased the expression”. The “CTGF mRNA expression in lungs” value ([3]; oral, Compound I 200 mg/kg, pirfenidone 400 mg/kg, alone or combined, FIG. 13) was “significantly decreased the expression”, the “IL-23 mRNA expression in lungs” value ([3]; oral, Compound I 200 mg/kg, pirfenidone 400 mg/kg, alone or combined, FIG. 14) was “significantly decreased the expression” and the “IL-6 mRNA expression in lungs” value ([3]; oral, Compound I 200 mg/kg, pirfenidone 400 mg/kg, alone or combined, FIG. 15) was “significantly decreased the expression”. For the same molecule, the “collagen 3 mRNA expression in lungs” value ([3]; oral, Compound I 200 mg/kg, pirfenidone 400 mg/kg, alone or combined, FIG. 18) was “weak reduction”, the “collagen 1 mRNA expression in lungs” value ([3]; oral, Compound I 200 mg/kg, pirfenidone 400 mg/kg, alone or combined, reduction to the control level, FIG. 16) was “significant reduction” and the “fibronectin (FN-1) mRNA expression in lungs” value ([3]; oral, Compound I 200 mg/kg, pirfenidone 400 mg/kg, alone or combined, reduction to the control level, FIG. 17) was “significant reduction”. The inhibition at 500 µM [4] was 65%, the “TGF-β-induced CTGF transcript expression” value ([5]; TGF-β 5 ng/ml, compound 500 μM, FIG. 23) was “inhibited” and the “TGF-β-induced collagen 1 transcript expression” value ([5]; TGF-β 5 ng/ml, compound 500 μM, FIG. 24) was “inhibited”. For the same molecule, the “TGF-β-induced α-SMA transcript expression” value ([5]; TGF-β 5 ng/ml, compound 500 μM, FIG. 25) was “inhibited”, the “inhibition of α-SMA in TGF-β induced fibroblasts” value ([5]; TGF-β induced) was 90% and the “basal expression of CTGF” value ([5]; compound alone (0.5 mM), no TGF-β, FIG. 23) was “decreased basal expression”. The “basal expression of collagen 1” value ([5]; compound alone (0.5 mM), no TGF-β, FIG. 24) was “decreased basal expression” and the “basal expression of α-SMA” value ([5]; compound alone (0.5 mM), no TGF-β, FIG. 25) was “decreased basal expression”.
